Twelve compounds from patent publication US20090005375A1, “ACETYL COENZYME A CARBOXYLASE INHIBITORS” (priority 2007, published 2009) can be followed below.

In test [1] the target is T1, Human ACC1 (Homo sapiens, UniProt Q13085).
T1 construct: made in house; host or cells: SF-9 insect cells (baculovirus, pFAST-BacHTc)
The experiment in a line: In vitro enzymatic ACC activity assay (malachite green), ACC1. It is filed as biochemical. As to conditions: recombinant His-tagged enzyme, absorbance at 620 nm. The protocol:
(§1) Provided in Example A is an in vitro enzymatic ACC activity assay for activity against ACC. The binding affinity of the test compound to ACC1 or ACC2 is determined by the changes in absorbance (at 620 nm); […]. It should be noted that a variety of other expression systems and hosts are also suitable for the expression of ACC, as would be readily appreciated by one of skill in the art.
Human ACC1 cDNA was amplified from human liver cDNA by polymerase chain reaction using primers; 5′[…]3′ (SEQ ID NO: 1) and 5′[…]3′ (SEQ ID NO: 2). The amplified DNA fragment was digested by restriction enzyme SalI and NotI, and cloned into pFAST-BacHTc (Invitrogen). This plasmid DNA was used for preparation of recombinant vaculovirus with BAC-TO-BAC Baculovirus Expression System (Invitrogen).
SF-9 cells were infected with the vaculovirus and cultured at 27° C. for 3 days. Harvested cells were homogenized in buffer A (25 mM HEPES (pH7.5), 130 mM NaCl, 1 mM EDTA, 25 mM sodium glycerophosphate, 1 mM sodium orthovanadate, 10% glycerol, complete protease inhibitor), and subjected to ultracentrifuge at 185700×g for 50 min at 4° C. ACC1 protein with 6×His-tag at the N-terminal was purified from the supernatant using Ni-NTA Super Flow Gel (QIAGEN). Eluted protein was dialysed against buffer B (50 mM HEPES (pH 7.5), 300 mM NaCl, 10 mM MgCl2, 10 mM tripotassium citrate, 2 mM dithiothreitol) and concentrated using Vivaspin20 ultrafiltration tube (Sartorius).
(§2) Malachite green solution was prepared by mixing 100 mL of solution A (0.12% malachite green in 5NH2SO4), 25 mL of solution B (7.5% ammonium molybdate) and 2 mL of solution C (11% TWEEN-20).
(§3) ACC1 was diluted to 8 μg/mL in reaction buffer (50 mM HEPES pH7.5, 10 mM MgCl2, 10 mM tripotassium citrate, 2 mM DTT, 0.75 mg/mL fatty acid free BSA) and 10 μL diluted enzyme solution was pored into each well of 384-well clear bottom plate. Test compound was diluted in the reaction buffer and 5 μL of the compound solution was added into each well, and the mixture was incubated at 30° C. for 60 minutes. Reaction was initiated by addition of 5 μL substrate solution (50 mM KHCO3, 200 μM ATP, 200 μM acetyl-CoA). After incubation at 30° C. for 20 minutes, reaction was terminated by addition of 5 μL malachite green solution and absorbance at 620 nm was measured.
(§4) Percent activity at each concentration of compound was calculated from the following equation: […]
(§5) Data were subjected to nonlinear regression analysis using GraphPad Prism Software (GraphPad Software Inc.) to obtain IC50 values.

In test [2] the target is T2, Human ACC2 (Homo sapiens, UniProt O00763).
T2 construct: made in house; host or cells: SF-9 insect cells (baculovirus, pFAST-BacHTa)
T2 sequence (O00763 117-2458 limits assumed): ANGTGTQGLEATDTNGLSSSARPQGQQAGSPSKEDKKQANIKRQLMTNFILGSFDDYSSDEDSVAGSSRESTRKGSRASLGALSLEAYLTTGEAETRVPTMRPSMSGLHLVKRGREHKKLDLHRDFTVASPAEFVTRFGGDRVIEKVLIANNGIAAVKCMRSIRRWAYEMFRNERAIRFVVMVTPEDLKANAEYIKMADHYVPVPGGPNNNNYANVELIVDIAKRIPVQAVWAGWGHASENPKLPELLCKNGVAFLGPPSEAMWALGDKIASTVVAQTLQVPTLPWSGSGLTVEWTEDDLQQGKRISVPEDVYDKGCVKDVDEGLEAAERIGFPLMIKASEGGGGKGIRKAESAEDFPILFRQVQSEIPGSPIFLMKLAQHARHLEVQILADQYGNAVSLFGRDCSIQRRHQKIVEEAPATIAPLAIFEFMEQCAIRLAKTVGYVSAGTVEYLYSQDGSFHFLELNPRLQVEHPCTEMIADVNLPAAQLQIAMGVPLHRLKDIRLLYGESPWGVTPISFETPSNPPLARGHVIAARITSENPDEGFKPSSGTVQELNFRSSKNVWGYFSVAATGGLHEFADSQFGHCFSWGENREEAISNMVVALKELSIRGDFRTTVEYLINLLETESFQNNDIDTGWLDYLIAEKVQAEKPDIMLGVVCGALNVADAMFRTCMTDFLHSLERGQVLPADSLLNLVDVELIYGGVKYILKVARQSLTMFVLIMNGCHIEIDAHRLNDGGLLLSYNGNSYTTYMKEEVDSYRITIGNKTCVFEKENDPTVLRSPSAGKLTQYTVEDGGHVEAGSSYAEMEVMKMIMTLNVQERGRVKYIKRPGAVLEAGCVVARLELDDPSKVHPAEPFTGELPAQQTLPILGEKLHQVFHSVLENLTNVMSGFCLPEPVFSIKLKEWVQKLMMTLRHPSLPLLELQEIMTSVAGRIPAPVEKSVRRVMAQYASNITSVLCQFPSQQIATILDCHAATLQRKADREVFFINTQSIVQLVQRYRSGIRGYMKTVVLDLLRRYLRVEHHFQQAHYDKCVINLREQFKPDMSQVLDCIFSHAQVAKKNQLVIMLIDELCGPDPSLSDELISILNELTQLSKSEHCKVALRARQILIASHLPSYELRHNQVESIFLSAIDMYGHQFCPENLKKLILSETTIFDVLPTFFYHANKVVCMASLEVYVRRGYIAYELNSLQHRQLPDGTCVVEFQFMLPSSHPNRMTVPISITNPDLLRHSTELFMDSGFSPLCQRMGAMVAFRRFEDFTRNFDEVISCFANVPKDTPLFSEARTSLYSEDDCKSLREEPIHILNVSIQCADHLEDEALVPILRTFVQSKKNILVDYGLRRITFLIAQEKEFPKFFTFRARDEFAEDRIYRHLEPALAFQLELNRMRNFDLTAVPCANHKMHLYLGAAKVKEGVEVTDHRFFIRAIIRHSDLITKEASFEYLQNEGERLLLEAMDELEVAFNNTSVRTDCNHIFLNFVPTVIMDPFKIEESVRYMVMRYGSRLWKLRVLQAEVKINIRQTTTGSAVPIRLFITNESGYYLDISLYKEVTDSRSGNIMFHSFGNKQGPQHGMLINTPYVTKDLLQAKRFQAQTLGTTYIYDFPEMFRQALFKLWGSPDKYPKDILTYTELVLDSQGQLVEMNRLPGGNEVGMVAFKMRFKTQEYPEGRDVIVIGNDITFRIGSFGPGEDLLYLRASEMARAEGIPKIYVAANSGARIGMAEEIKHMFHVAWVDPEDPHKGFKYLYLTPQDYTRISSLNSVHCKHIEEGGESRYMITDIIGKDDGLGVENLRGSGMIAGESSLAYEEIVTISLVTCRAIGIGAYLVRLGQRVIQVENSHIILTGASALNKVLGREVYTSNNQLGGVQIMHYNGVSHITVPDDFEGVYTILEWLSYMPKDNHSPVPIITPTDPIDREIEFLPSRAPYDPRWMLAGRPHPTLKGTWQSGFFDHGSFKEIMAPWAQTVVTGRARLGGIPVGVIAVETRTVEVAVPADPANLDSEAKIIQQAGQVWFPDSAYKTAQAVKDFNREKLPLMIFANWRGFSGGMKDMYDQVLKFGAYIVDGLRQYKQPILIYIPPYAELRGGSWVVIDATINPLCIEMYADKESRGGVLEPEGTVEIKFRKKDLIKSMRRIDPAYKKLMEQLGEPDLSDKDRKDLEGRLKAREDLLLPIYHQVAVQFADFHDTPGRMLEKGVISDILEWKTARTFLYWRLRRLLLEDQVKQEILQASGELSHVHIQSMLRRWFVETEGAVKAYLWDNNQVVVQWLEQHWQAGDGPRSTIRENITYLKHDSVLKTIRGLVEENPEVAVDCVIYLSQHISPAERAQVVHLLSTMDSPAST
The experiment in a line: In vitro enzymatic ACC activity assay (malachite green), ACC2. It counts as biochemical. As to conditions: recombinant His-tagged enzyme, absorbance at 620 nm. The protocol:
as §1
Human ACC2 cDNA except coding region for mitochondria localization sequence was amplified from human skeletal muscle cDNA by polymerase chain reaction using primers; 5′[…]3′ (SEQ ID NO: 3) and 5′[…]3′ (SEQ ID NO: 4). The amplified DNA fragment was digested by SalI and AflII, and cloned into pFAST-BacHTa (Invitrogen). Preparation of recombinant vaculovirus, infection of the virus to SF-9 cells and purification of recombinant ACC2 protein with 6×His-tag at the N-terminal were performed in the same method as described above.
as §2, §3
ACC2 was diluted to 6.4 μg/mL in reaction buffer, and the activity was measured by the same method as described for ACC1.
as §4, §5

On to `CCNC(=O)Nc1sc2ccccc2c1C(=O)N1CCN(S(=O)(=O)c2cccc(-c3noc(C)n3)c2)CC1` [Example 13, ethyl-3-(3-(4-(3-(5-methyl-1,2,4-oxadiazol-3-yl)phenylsulfonyl)piperazine-1-carbonyl)benzo[b]thiophen-2-yl)urea], for which the half-inhibitory concentration (IC50) in test [1] and in test [2] was under 5 µM each time.
Consider `CCNC(=O)Nc1sc2ccccc2c1C(=O)N1CCN(S(=O)(=O)c2ccc(S(C)(=O)=O)cc2)CC1` [Example 29, ethyl-3-(3-(4-(4-(methylsulfonyl)phenylsulfonyl)piperazine-1-carbonyl)benzo[b]thiophen-2-yl)urea], for which the IC50 is over 50 µM in test [1] and 5 to 50 µM in test [2].
In the same order, the values of `CCNC(=O)Nc1sc2ccccc2c1C(=O)N1CCC(S(=O)(=O)c2ccc3c(c2)OCO3)CC1` [Example 38, 1-(3-(4-(benzo[d][1,3]dioxol-5-ylsulfonyl)piperidine-1-carbonyl)benzo[b]thiophen-2-yl)-3-ethylurea] are over 50 µM and over 50 µM.
In the same order, the values of `CCNC(=O)Nc1sc2ccccc2c1C(=O)N1CCN(S(=O)(=O)CCC(=O)N2CCOCC2)CC1` [Example 36, ethyl-3-(3-(4-(3-morpholino-3-oxopropylsulfonyl)piperazine-1-carbonyl)benzo[b]thiophen-2-yl)urea] are 5 to 50 µM and 5 to 50 µM.
In the same order, the values of `CCNC(=O)Nc1sc2ccccc2c1C(=O)N1CCN(S(=O)(=O)c2ccc(OC)c(OC)c2)CC1` [Example 23, 1-(3-(4-(3,4-dimethoxyphenylsulfonyl)piperazine-1-carbonyl)benzo[b]thiophen-2-yl)-3-ethylurea] are under 5 µM and under 5 µM.
For `CCNC(=O)Nc1sc2ccccc2c1C(=O)N1CCN(S(=O)(=O)c2ccc3ncsc3c2)CC1` [Example 21, 1-(3-(4-(benzo[d]thiazol-6-ylsulfonyl)piperazine-1-carbonyl)benzo[b]thiophen-2-yl)-3-ethylurea], the concentration for half-maximal inhibition (IC50) in test [1] and in test [2] was under 5 µM throughout.
Turning to `CCNC(=O)Nc1sc2ccccc2c1C(=O)N1CCN(S(=O)(=O)c2ccc(N3CCOCC3)nc2)CC1` [Example 14, ethyl-3-(3-(4-(6-morpholinopyridin-3-ylsulfonyl)piperazine-1-carbonyl)benzo[b]thiophen-2-yl)urea], the concentration for half-maximal inhibition (IC50) in test [1] and in test [2] was under 5 µM in each case.
Turning to `CCNC(=O)Nc1sc2ccccc2c1C(=O)N1CCN(S(=O)(=O)c2ccc(Cl)c(S(N)(=O)=O)c2)CC1` [Example 9, 2-chloro-5-(4-(2-(3-ethylureido)benzo[b]thiophene-3-carbonyl)piperazin-1-ylsulfonyl)benzenesulfonamide], the IC50 in test [1] and in test [2] was under 5 µM throughout.
Regarding `CCNC(=O)Nc1sc2ccccc2c1C(=O)N1CCN(S(=O)(=O)c2cccc(OC(F)(F)F)c2)CC1` [Example 15, ethyl-3-(3-(4-(3-(trifluoromethoxy)phenylsulfonyl)piperazine-1-carbonyl)benzo[f]thiophen-2-yl)urea], the half-inhibitory concentration (IC50) in test [1] and in test [2] was over 50 µM each time.
Take `CCNC(=O)Nc1sc2ccccc2c1C(=O)N1CCC(S(=O)(=O)c2cccc(OC)c2)CC1` [Example 37, ethyl-3-(3-(4-(3-methoxyphenylsulfonyl)piperidine-1-carbonyl)benzo[b]thiophen-2-yl)urea]: the 50% inhibitory concentration (IC50) in test [1] is over 50 µM; in test [2], under 5 µM.
The like results for `CCNC(=O)Nc1sc2ccccc2c1C(=O)N1CCN(S(=O)(=O)CCC(=O)N2CCCC2)CC1` [Example 35, ethyl-3-(3-(4-(3-oxo-3-(pyrrolidin-1-yl)propylsulfonyl)piperazine-1-carbonyl)benzo[b]thiophen-2-yl)urea] were, in that order, 5 to 50 µM and 5 to 50 µM.
In the case of `CCNC(=O)Nc1sc2ccccc2c1C(=O)N1CCN(S(=O)(=O)c2ccc3oc(=O)[nH]c3c2)CC1` [Example 32, ethyl-3-(3-(4-(2-oxo-2,3-dihydrobenzo[d]oxazol-5-ylsulfonyl)piperazine-1-carbonyl)benzo[b]thiophen-2-yl)urea], the IC50 in test [1] is over 50 µM; in test [2], 5 to 50 µM.

Broadly, the IC50 is the concentration that inhibits the measured activity by half.
